Source: patent US20230391845A1, “GLP-1, GIP AND GLUCAGON RECEPTOR TRIPLE AGONISTS” (priority 2020, published 2023)
“Also recorded” adds a separate entry of the source. *1 amine or outer side, *2 acyl side, *3 side chain or, on linkers, in order; H or OH if unused. Where a SMILES comes first, the peptide text is derived from it. Side-chain parts run from the residue outwards. [ ]: non-standard residue; d: D form. The star is where a group is joined. C20 diacid = O=C(O)CCCCCCCCCCCCCCCCCCC(=O)*; γGlu = O=C(O)[C@H](CCC(=O)[*:2])N[*:1]; εLys = N[C@@H](CCCCN[*:1])C(=O)[*:2]; AEEA = NCCOCCOCC(=O)O; Aib = CC(C)(N)C(=O)O

What was measured:
[1] = biological target: T1, human GLP-1 receptor (Homo sapiens, UniProt P43220); test: In vitro functional potency (CRE luciferase; whole cells), human GLP-1R; format: cell-based
T1 construct: expressed in transfected cells; host or cells: BHK cells (parent line BHKTS13) containing CRE luciferase
Method: The purpose of this example is to test the functional activity, or potency, of the compounds in vitro at the human and mouse GLP-1, GIP, and Gcg receptors. The in vitro functional potency is the measure of target receptor activation in a whole cell assay.
In vitro functional potency was determined by measuring the response of the target receptor in a reporter gene assay in individual cell lines. The assay was performed in stably transfected BHK cell lines that expresses one of the following G-protein coupled receptors: human GLP-1 receptor, human GIP receptor, human Gcg receptor, mouse GLP-1 receptor, mouse GIP receptor, or mouse Gcg receptor; and where each cell line contains the DNA for the cAMP response element (CRE) coupled to a promoter and the gene for firefly luciferase (CRE luciferase). When the respective receptor is activated, it results in the production of cAMP, which in turn results in expression of the luciferase protein. When assay incubation is completed, luciferase substrate (luciferin) is added resulting in the enzymatic conversion of luciferin to oxyluciferin and producing bioluminescence. The luminescence is measured as the readout for the assay.
The cells lines used in these assays were BHK cells with BHKTS13 as a parent cell line. The cell lines were derived from a clone containing the CRE luciferase element and were established by further transfection with the respective receptor to obtain the relevant cell line.
The cells were cultured at 37° C. with 5% CO2 in Cell Culture Medium. They were aliquoted and stored in liquid nitrogen. The cells were kept in continuous culture and were seeded out the day before each assay.
GLP-1R and GcgR Cell Culture Medium consisted of DMEM medium with 10% FBS, 500 µg/mL G418, and 300 µg/mL hygromycin. GIPR Cell Culture Medium consisted of DMEM medium with 10% FBS, 400 µg/mL G418, and 300 µg/mL hygromycin. Assay Buffer consisted of DMEM w/o phenol red, 10 mM Hepes, 1× Glutamax, 1% ovalbumin, and 0.1% Pluronic F-68.
• 1) Cells were plated at 5000 cells/well and incubated overnight in the assay plate. • 2) Cells were washed once in DPBS. • 3) Stocks of the test compounds and reference compounds in concentrations ranging from 100-300 pM were diluted 1:150 in Assay Buffer.
The data from the microtiter plate reader was first regressed in an Excel in order to calculate the x-axis, log scale concentrations based on the individual test compound's stock concentration and the dilutions of the assay. […] The software performs a non-linear regression (log(agonist) vs response). A minimum of two replicates was measured for each sample. The reported values are averages of the replicates.

[2] = Pharmacokinetic study in minipigs, i.v. administration; set-up: species or system Göttingen minipigs; settings: female, Göttingen, minipig, in vivo, iv; minipigs, i.v. administration, harmonic mean; read-out: Terminal half-life t1/2 (converted)
Outline: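 Terminal half-life, reported as harmonic mean, came from non-compartmental fits of plasma levels measured by antibody assay or LCMS over up to 14 days. Dosing was i.v., typically 1.5-2 nmol/kg, through implanted caval catheters in fasted female Göttingen minipigs of 16-35 kg.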

[3] = IPGTT (intraperitoneal glucose tolerance test) in DIO mice; format: in vivo, C57BL/6J male mice; settings: for iAUC, IPGTT (min*mg/dL) Day 14: i.p. glucose 2 g/kg, baseline subtracted AUC
Method: (§1) The purpose of this example is to assess the in vivo effect of selected triple agonists on pharmacodynamic parameters in diet-induced obese (DIO) mice. The animals were treated once daily via subcutaneous injection with a liquid formulation of the triple agonist to be tested to assess effects on body weight, foot intake, and glucose tolerance.
(§2) C57BL/6J male mice were purchased from Jackson Laboratories at approximately 8 weeks of age. Mice were group housed and fed a high-fat, high-sugar diet from Research Diets (D12331). Mice were maintained on this diet for 12 weeks prior to initializing the pharmacology studies. Mice exceeding a measured body weight of 50 grams were considered diet-induced obese (DIO) and included in pharmacology studies. Mice were exposed to a controlled 12 h:12 h light:dark cycle at ambient room temperature (22° C.) with ab libitum access to food and water. Studies were approved by and performed according to the guidelines of the Institutional Animal Care and Use Committee of the University of Cincinnati.
(§3) All compounds in the study were formulated in the following buffer: 50 mM phosphate; 70 mM sodium chloride; 0.05% Tween-80, pH 7.4. Dosing solutions were formulated in glass vials and stored at 2-8° C. Dosing solutions were brought to room temperature before dosing and returned to 2-8° C. after dosing.
(§4) DIO mice were distributed into groups (n=8 per group) such that statistical variations in the mean and standard deviations of fat mass and body weight were minimized between groups. The animals were grouped to receive treatment as follows: Vehicle or GLP-1/GIP/Gcg receptor triple agonists as described herein, where vehicle is 50 mM phosphate, 70 mM sodium chloride; 0.05% (v/v) Tween-80, pH 7.4. The test compounds were dissolved in the vehicle, to stock concentrations of […], then diluted 50- to 200-fold in the vehicle to achieve the desired dosing solution concentrations. Animals were dosed subcutaneously once daily in the morning for each day of treatment with dosing solution at a volume of 2-5 μL per gram of body weight as necessary to achieve the desired dose (e.g. 0.3 nmol/kg, 1.0 nmol/kg, or 3.0 nmol/kg).
On the day of the glucose tolerance test, animals were fasted for 4 h. Food was removed and animals were transferred to fresh cages. Animals had access to water but not to food. Tail blood glucose levels were measured, and mice were injected (t=0) with an intraperitoneal (i.p.) glucose load of 2 g/kg (200 mg/ml glucose solution, dose volume 10 ml/kg). Tail blood glucose levels were measured at times 0, 15, 30, 60, 90, 120 minutes following the i.p. glucose load. Stratification of the animals during the IPGTT was such that for example two mice from group 1 are dosed followed by two mice from group 2, 3, 4, before the next two mice from group 1, 2, 3 etc. were handled. This was to allow for equal distribution of “time of day” throughout all groups.

[4] = Pharmacodynamic study in DIO mice, daily s.c. dosing over 13 days (body weight, food intake); format: in vivo, C57BL/6J male mice; settings: for Absolute BW (grams) Day 0: Day 0 (baseline); for Cumulative food intake (grams) Day 13: mean ± SEM, n = 2; for reduction in body weight (in words) / reduction in food intake (in words): daily s.c. dosing over 13 days, compared to vehicle
Method: as §1, §2, §3
as §4, with “The” for “DIO mice were distributed into groups (n=8 per group) such that statistical variations in the mean and standard deviations of fat mass and body weight were minimized between groups. The”
Body weight (BW) and food intake were measured immediately prior to dosing each day. The percent change in body was calculated individually for each mouse based on initial body weight prior to the first injection.

T1 sequence (P43220 24-463): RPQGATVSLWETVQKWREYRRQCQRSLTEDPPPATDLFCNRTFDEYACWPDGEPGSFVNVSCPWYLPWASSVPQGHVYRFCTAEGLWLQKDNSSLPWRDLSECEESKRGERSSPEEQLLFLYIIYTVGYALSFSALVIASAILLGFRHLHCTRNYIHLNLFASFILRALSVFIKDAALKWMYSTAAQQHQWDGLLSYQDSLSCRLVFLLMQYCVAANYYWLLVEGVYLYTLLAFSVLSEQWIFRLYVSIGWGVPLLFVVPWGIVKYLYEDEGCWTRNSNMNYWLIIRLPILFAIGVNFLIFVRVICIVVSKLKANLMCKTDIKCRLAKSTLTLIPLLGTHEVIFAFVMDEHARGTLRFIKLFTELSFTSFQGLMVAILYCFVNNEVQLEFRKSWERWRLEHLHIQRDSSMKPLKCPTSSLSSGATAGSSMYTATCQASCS

CC(C)C[C@H](NC(=O)[C@H](CC(C)C)NC(=O)[C@H](Cc1c[nH]c2ccccc12)NC(=O)[C@H](CCC(N)=O)NC(=O)[C@@H](NC(=O)[C@H](Cc1ccccc1)NC(=O)[C@H](CCC(=O)O)NC(=O)C(C)(C)NC(=O)[C@H](C)NC(=O)[C@H](C)NC(=O)[C@H](CCC(N)=O)NC(=O)[C@H](CCCCNC(=O)[C@@H](N)CCCCNC(=O)[C@@H](N)CCCCNC(=O)CC[C@H](NC(=O)CCCCCCCCCCCCCCCCCCC(=O)O)C(=O)O)NC(=O)[C@H](CCC(=O)O)NC(=O)[C@H](CC(C)C)NC(=O)[C@H](Cc1ccc(O)cc1)NC(=O)[C@H](Cc1ccc(O)cc1)NC(=O)[C@H](CO)NC(=O)[C@H](Cc1ccc(O)cc1)NC(=O)[C@H](CC(=O)O)NC(=O)[C@H](CO)NC(=O)[C@@H](NC(=O)[C@H](Cc1ccccc1)NC(=O)[C@@H](NC(=O)CNC(=O)[C@H](Cc1c[nH]cn1)NC(=O)C(C)(C)NC(=O)[C@@H](N)Cc1c[nH]cn1)[C@@H](C)O)[C@@H](C)O)C(C)C)C(=O)N[C@@H](CCC(=O)O)C(=O)NCC(=O)NCC(=O)N1CCC[C@H]1C(=O)N[C@@H](CO)C(=O)N[C@@H](CO)C(=O)NCC(=O)N[C@@H](C)C(=O)N1CCC[C@H]1C(=O)N1CCC[C@H]1C(=O)N1CCC[C@H]1C(=O)N[C@@H](CO)C(N)=O [Compound No. 26] (H-H[Aib]HGTFTSDYSYYLEK([εLys-εLys-γGlu-C20 diacid])QAA[Aib]EFVQWLLEGGPSSGAPPPS-NH2; N-terminus assumed)
EC50 [1]: 3.1 pM | half-life [2]: 80 h | iAUC, IPGTT (min*mg/dL) Day 14 ([3]; 1.0 nmol/kg s.c. once daily): 8789 ± 1521 mg·min/dL | Absolute BW (grams) Day 0 ([4]; 1.0 nmol/kg group): 60.7 ± 1.9 grams | Absolute BW (grams) Day 13 ([4]; 1.0 nmol/kg s.c. once daily): 51.6 ± 2.2 grams | Change in BW (%) Day 13 ([4]; 1.0 nmol/kg s.c. once daily): −15.6 ± 0.9% | Cumulative food intake (grams) Day 13 ([4]; 1.0 nmol/kg s.c. once daily): 20.1 ± 3.4 grams | reduction in body weight (in words) [4]: superior reduction | reduction in food intake (in words) [4]: superior reduction

CC[C@H](C)[C@H](NC(=O)[C@H](CO)NC(=O)[C@H](Cc1ccc(O)cc1)NC(=O)[C@H](CC(=O)O)NC(=O)[C@H](CO)NC(=O)[C@@H](NC(=O)[C@H](Cc1ccccc1)NC(=O)[C@@H](NC(=O)CNC(=O)[C@H](Cc1c[nH]cn1)NC(=O)C(C)(C)NC(=O)[C@@H](N)Cc1c[nH]cn1)[C@@H](C)O)[C@@H](C)O)C(=O)N[C@@H](Cc1ccc(O)cc1)C(=O)N[C@@H](CC(C)C)C(=O)N[C@@H](CCC(=O)O)C(=O)N[C@@H](CCCCNC(=O)COCCOCCNC(=O)COCCOCCNC(=O)CC[C@H](NC(=O)CCCCCCCCCCCCCCCCCCC(=O)O)C(=O)O)C(=O)N[C@@H](CCC(N)=O)C(=O)N[C@@H](C)C(=O)N[C@@H](C)C(=O)NC(C)(C)C(=O)N[C@@H](CCC(=O)O)C(=O)N[C@@H](Cc1ccccc1)C(=O)N[C@H](C(=O)N[C@@H](CCC(N)=O)C(=O)N[C@@H](Cc1c[nH]c2ccccc12)C(=O)N[C@@H](CC(C)C)C(=O)N[C@@H](CC(C)C)C(=O)N[C@@H](CCC(=O)O)C(=O)NCC(=O)NCC(=O)N1CCC[C@H]1C(=O)N[C@@H](CO)C(=O)N[C@@H](CO)C(=O)NCC(=O)N[C@@H](C)C(=O)N1CCC[C@H]1C(=O)N1CCC[C@H]1C(=O)N1CCC[C@H]1C(=O)N[C@@H](CO)C(N)=O)C(C)C [Compound No. 44] (H-H[Aib]HGTFTSDYSIYLEK([AEEA-AEEA-γGlu-C20 diacid])QAA[Aib]EFVQWLLEGGPSSGAPPPS-NH2; N-terminus assumed)
EC50 [1]: 1.8 pM | iAUC, IPGTT (min*mg/dL) Day 14 ([3]; 0.3 nmol/kg s.c. once daily): 25356 ± 4338 mg·min/dL | glucose tolerance compared to vehicle (in words) ([3]; 1.0 nmol/kg and 3.0 nmol/kg doses): improved glucose tolerance | iAUC, IPGTT (min*mg/dL) Day 14 ([3]; 1.0 nmol/kg s.c. once daily): 14606 ± 2410 mg·min/dL | iAUC, IPGTT (min*mg/dL) Day 14 ([3]; 3.0 nmol/kg s.c. once daily): 15161 ± 2257 mg·min/dL | Absolute BW (grams) Day 0 ([4]; 0.3 nmol/kg group): 59.2 ± 1.2 grams | Absolute BW (grams) Day 13 ([4]; 0.3 nmol/kg s.c. once daily): 56.9 ± 1.5 grams | Change in BW (%) Day 13 ([4]; 0.3 nmol/kg s.c. once daily): −3.9 ± 1.1% | Cumulative food intake (grams) Day 13 ([4]; 0.3 nmol/kg s.c. once daily): 28.0 ± 0.6 grams | Absolute BW (grams) Day 0 ([4]; 1.0 nmol/kg group): 60.8 ± 1.1 grams | Absolute BW (grams) Day 13 ([4]; 1.0 nmol/kg s.c. once daily): 52.7 ± 1.3 grams | Change in BW (%) Day 13 ([4]; 1.0 nmol/kg s.c. once daily): −13.4 ± 0.9% | Cumulative food intake (grams) Day 13 ([4]; 1.0 nmol/kg s.c. once daily): 24.8 ± 1.8 grams | Absolute BW (grams) Day 0 ([4]; 3.0 nmol/kg group): 60.6 ± 1.1 grams | Absolute BW (grams) Day 13 ([4]; 3.0 nmol/kg s.c. once daily): 43.1 ± 1.8 grams | Change in BW (%) Day 13 ([4]; 3.0 nmol/kg s.c. once daily): −29.1 ± 2.3% | Cumulative food intake (grams) Day 13 ([4]; 3.0 nmol/kg s.c. once daily): 12.4 ± 1.5 grams | reduction in body weight (in words) [4]: superior reduction; also recorded: dose-dependent effect | reduction in food intake (in words) [4]: superior reduction; also recorded: dose-dependent effect
